Laboratory results from US8809314B1, “Cephalosporin compound” (Cubist Pharmaceuticals, Inc., priority 2012, dated 2014).
Values after ≈ are worked out from the molar mass of the structure shown.

Key:
Pseudomonas aeruginosa = experiment: MIC measured by the method of Example 3; format: cell-based; conditions: strain not named, read-out: MIC against Pseudomonas aeruginosa
Protocol: (§1) To prepare for MIC testing, individual colonies were isolated by streaking frozen glycerol material containing Staphylococcus or Pseudomonas spp. onto rich, non-selective, tryptic soy agar containing 5% sheep's blood (TSAB), and incubated at 37° C. for 18-24 hrs.
(§2) On the day of testing, primary cultures were started by scraping off 5-10 colonies from the TSAB plates. The material was suspended in ˜5 mL of cation adjusted Mueller Hinton Broth (CAMHB) in 14 mL culture tubes and incubated at 37° C. with aeration (200 rpm) for ˜2 hrs until the OD600 was ≧0.1.
(§3) Inoculum cultures were prepared by standardizing the primary cultures to OD600=0.1 and then adding 20 μL of the adjusted primary culture per 1 mL CAMHB for Pseudomonas and CAMHB plus 4% NaCl for MRSA so that the final inoculum density was ˜10^5 colony forming units per milliliter. Diluted inoculum cultures were used to inoculate 50 μL per well in 96 well broth microdilution assay plates. […]
(§4) Plates were incubated for 18-20 hours at 37° C. with aeration (200 rpm). Following incubation, growth was confirmed visually placing plates over a viewing apparatus (stand with a mirror underneath) and then OD600 was measured using a SpectraMax 340PC384 plate reader (Molecular Devices, Sunnyvale, Calif.). Growth was defined as turbidity that could be detected with the naked eye or achieving minimum OD600 of 0.1. […]

[1] = system: methicillin-resistant Staphylococcus aureus (MRSA); experiment: MIC measured by the method of Example 3; format: cell-based; conditions: strain not named, read-out: MIC against methicillin-resistant Staphylococcus aureus (MRSA)
Protocol: as §1, §2, §3, §4

[2] = system: ceftazidime-resistant Pseudomonas aeruginosa #2545; experiment: Lung infection in neutropenic mice; format: in vivo; conditions: Pa #2545 lung infection, neutropenic mice
Protocol: (§5) In vivo efficacy of (I) was evaluated against strains of MRSA, and ceftazidime-resistant Pa and Klebsiella pneumonia (Kpn) in mouse septicemia, thigh and lung infections. Septicemia: CD-1 mice received lethal bacterial inocula IP, followed by 2 doses of antibiotics SC at 1 and 6 hrs post-inoculation. Dose calculated to protect 50% of the mice (PD50) was derived based on probit analysis of percentage survival. Thigh and lung infections: Thighs or lungs of neutropenic mice were inoculated with MRSA or Pa. Two treatment doses were given SC at 1 and 6 hrs post-inoculation. Tissues were harvested at ˜24 hrs post-inoculation and bacterial burdens quantified.
(§6) II. Methods • A. Animals: Six week-old, specific pathogen free, female CD-1 mice purchased from Charles River Laboratories (Wilmington, Mass.) were used for all studies after acclimation in Cubist animal facility. All animal procedures were approved by the Cubist Institutional Animal Care and Use Committee. • B. Bacteria and In Vitro Susceptibility Testing: MRSA #712, Pseudomonas aeruginosa #2245 and #2545, and Klebsiella pneumoniae #573 are clinical isolates; Pseudomonas aeruginosa #44 is an ATCC strain (ATCC#27853). MIC was determined in MHB by standard CLSI microdilution. Comparator Antibiotics Used in Animal Studies: Vancomycin hydrochloride USP was purchased from Hospira (Lake Forest, Ill.); ceftazidime hydrate from Sigma; Primaxin (imipenem and cilastatin) from Merck; ceftaroline was synthesized at a CRO. • D. Mouse Septicemia: Mice received lethal inocula of bacteria in 6% hog gastric mucin intraperitoneally (IP), followed by two treatment doses of antibiotics via subcutaneous (SC) administration at 1 and 6 hrs post-inoculation. The survival of animals was recorded daily for 7 days. The antibiotic dose calculated to protect 50% of the mice (PD50) was derived based on probit analysis of percentage survival. • E. Mouse Thigh and Lung Infections: Mice were rendered neutropenic by two IP injections of cyclophosphamide 4 days (150 mg/kg) and 1 day (100 mg/kg) before bacterial inoculation. Thigh or lung infection was induced by an intramuscular injection of 0.2 mL or intranasal inoculation of 0.1 mL inoculum preparation from an overnight bacterial culture into left thigh or nares. Tissues from one group of mice receiving no treatment (No Rx) were harvested at 1 hr for determination of baseline of bacterial burden. The remaining mice received two treatment doses of vehicles or antibiotics given SC at 1 and 6 hrs post-inoculation. Tissues from the treated mice were harvested at ˜24 hrs post-inoculation. Tissue bacterial burdens were quantified by serial dilution and spiral plating of homogenates.

[3] = system: ceftazidime-susceptible Pseudomonas aeruginosa #2245; experiment: Lung infection in neutropenic mice; format: in vivo; conditions: Pa #2245 lung infection, 3-log CFU reduction vs vehicle at 24 h
Protocol: as §5, §6

[4] = system: ceftazidime-susceptible Pseudomonas aeruginosa #44 (ATCC#27853); experiment: Lung infection in neutropenic mice; format: in vivo; conditions: Pa #44 lung infection
Protocol: as §5, §6

Pa2086 (mucoid strain) = experiment: MIC, broth microdilution (Example 5), Table 3; format: cell-based; conditions: Pseudomonas aeruginosa
Protocol: (§7) II. […] MIC90 values were defined as the concentration required to inhibit growth of 90% of the strains tested. • C. SAR was performed using the following isolates: Sa399 (ATCC43300, MRSA), Sa1721 (NARSA NRS384, MRSA USA 300), Pa44 (ATCC27853), and 4 clinical isolates (Pa2241, Pa2086 (mucoid strain), Pa2694 and Pa2698). • D. The in vitro antibacterial activity of the compound of formula (I) was further evaluated in an expanded MRSA and Pa MIC panel (see Table 4 and FIG. 6).

Pa2241 = experiment: MIC, broth microdilution (Example 5), Table 3; format: cell-based; conditions: Pseudomonas aeruginosa
Protocol: as §7

Pa2694 = experiment: MIC, broth microdilution (Example 5), Table 3; format: cell-based; conditions: Pseudomonas aeruginosa
Protocol: as §7

Pa2698 = experiment: MIC, broth microdilution (Example 5), Table 3; format: cell-based; conditions: Pseudomonas aeruginosa
Protocol: as §7

Pa44 (ATCC27853) = experiment: MIC, broth microdilution (Example 5), Table 3; format: cell-based; conditions: Pseudomonas aeruginosa
Protocol: as §7

[5] = system: Sa1721 (NARSA NRS384, MRSA USA 300); experiment: MIC, broth microdilution (Example 5), Table 3; format: cell-based; conditions: Staphylococcus aureus
Protocol: as §7

Sa399 (ATCC43300, MRSA) = experiment: MIC, broth microdilution (Example 5), Table 3; format: cell-based; conditions: Staphylococcus aureus
Protocol: as §7

MRSA (n = 21) = experiment: MIC90, expanded MIC panel (Table 4); format: cell-based; conditions: Staphylococcus aureus; 21 MRSA strains; read-out: MIC90 MRSA (n = 21)
Protocol: as §7

[6] = system: Pseudomonas aeruginosa (n = 100); experiment: MIC90, expanded MIC panel (Table 4); format: cell-based; conditions: 100 Pa strains
Protocol: as §7

[7] = 2 SC doses at 1 and 6 hrs, 24 h, vs vehicle
[8] = 3-log CFU reduction vs vehicle at 24 h

CO/N=C(\C(=O)N[C@@H]1C(=O)N2C(C(=O)[O-])=C(C[n+]3ccc(N)c(NC(=O)Nc4ccc(CCNC(=N)N)cc4)c3)CS[C@H]12)c1nc(N)sc1Cl [(I)]
MIC (Pseudomonas aeruginosa): 1 to 2 µg/mL (≈ 1.35 to 2.69 µM) | MIC [1]: 1 to 2 µg/mL (≈ 1.35 to 2.69 µM) | Lung (L) ED−2log [2, 7]: 6.7 (L) mg/kg | ED−3 log [2, 8]: 11.4 mg/kg | ED−3 log [3]: 5.2 mg/kg | Lung (L) ED−2log [4, 7]: 1.8 (L) mg/kg | ED−3 log [4, 8]: 4.1 mg/kg | MIC (Pa2086 (mucoid strain)): 8 µg/mL (≈ 10.8 µM) | MIC (Pa2241): 1 µg/mL (≈ 1.35 µM) | MIC (Pa2694): 8 µg/mL (≈ 10.8 µM) | MIC (Pa2698): 8 µg/mL (≈ 10.8 µM) | MIC (Pa44 (ATCC27853)): 2 µg/mL (≈ 2.69 µM) | MIC [5]: 8 µg/mL (≈ 10.8 µM) | MIC (Sa399 (ATCC43300, MRSA)): 2 µg/mL (≈ 2.69 µM) | MIC90 (MRSA (n = 21)): 2 µg/mL (≈ 2.69 µM) | MIC90 [6]: 8 µg/mL (≈ 10.8 µM)
